# From a melting point compilation (Tetko et al.; mined from patent text by program, amines drawn as free bases though some values may be those of a salt)
row,Compound,melting point [°C]
1,COc1nc2cc([N+](=O)[O-])cc(Br)c2nc1OC,171 to 175
2,O=C(Cc1ccccc1)N[C@@H]1C(=O)N[C@@H]1SCC(=O)c1ccccc1,160 to 162
3,COCCOC/C(=C\S(=O)(=O)c1ccccc1)C(=O)OC(C)(C)C,46 to 48
4,CCCCCCCC(=O)CCC(=O)O,78 to 78.5
5,O=C(O)CNC(=O)c1ccc(OCc2ccccc2)cc1OCc1ccccc1,168 to 169
6,O=C(O)C(=O)Nc1ccc2c(=O)c3c(oc2c1)C(=Cc1ccccc1)CC3,253 to 256
7,C[C@@H]1N(C(=O)OC(C)(C)C)C(=O)C[C@]1(C)O,122 to 125
8,CCCCCCC(C)(C)c1cc(O)c2c(c1)OC(C)(C)CC2C(=O)O (stereo not drawn),147 to 148
9,CN(C)C(=O)n1nc(N)c2ccc(Cl)cc21,170 to 172
10,O=C(c1cc(C(F)(F)F)cc(C(F)(F)F)c1)N1CCN(C(=O)CN2CC3CC2CN3Cc2ccccc2)C(c2ccc(Cl)c(Cl)c2)C1 (racemic),75 to 77
11,CCCc1c2oc(C(=O)O)cc(=O)c2cc2c(=O)ccn(Cc3ccccc3)c12,> 250
12,C=C(C)C(=O)NCCNC(=O)c1ccc2ccccc2c1O,167 to 169
13,COc1ccccc1OC(CCN)c1ccccc1 (stereo not drawn),118 to 121
14,CCC(C)Nc1c([N+](=O)[O-])cc(C)c(C)c1[N+](=O)[O-] (stereo not drawn),37 to 38.5
15,O=C(O)c1ccc2oc(-c3ccc(O)cc3)cc2c1,> 300
16,O=C(NC1CCN(CCc2ccccc2)CC1)c1c[nH]c2ccc(F)cc12,238 to 240
17,COc1cnc(CSc2nc3cc(OC(F)F)ccc3[nH]2)c(C)c1OC,100 to 102
18,N[C@@H](Cc1cn(Cc2ccccc2)cn1)C(=O)O,234 to 238
19,Cc1oc(-c2cccs2)nc1COc1ccc(CON=C(CCCCCCC(=O)O)c2ccccc2)cc1,106 to 108
20,COc1ccc(CSc2nnc(-c3ccc4occc4c3)o2)cc1C(F)(F)F,135 to 136
21,CNC(=C[N+](=O)[O-])NCCSCc1ccsn1,118 to 120
22,Cc1cc2c(cc1C1=NNC(=O)CC1)NC(=O)CO2,255 to 257
23,CCCCC(=O)c1c(CN2CCOCC2)nc2cc(OC)c(OC)cc2c1-c1ccc(OC)c(OC)c1,137 to 138
24,CCCCc1nn(Cc2ccccc2C(=O)OC)c(=O)n1Cc1ccc(-c2ccccc2-c2nnn[nH]2)cc1,79 to 80
25,CC(=O)NC1CCC2=C(CC1)C(=O)C(CC(=O)O)C=C2 (stereo not drawn),198
26,Cc1cnc(N2C(=O)C(O)=C(C(=O)c3ccc(C(C)C)cc3)C2c2ccc(OC(F)(F)F)cc2)s1 (stereo not drawn),243 to 244

row,Compound,melting point [°C]
1,Nc1cc(F)c([N+](=O)[O-])cc1F,153
2,c1c(C2CC2)n[nH]c1C1CC1,161 to 164
3,O=C1OC(OC(=O)c2cccnc2Nc2cccc(C(F)(F)F)c2)c2ccccc21 (stereo not drawn),159 to 162
4,C[C@@H](NC(=O)c1sc(-c2ccc(C#N)cc2)nc1C(F)(F)F)[C@](O)(Cn1cncn1)c1ccc(F)cc1F,101 to 108
5,CCC1c2cc(Cl)ccc2-c2ccc(Cl)cc21,80 to 83
6,COC(=O)c1cnc(Cl)c2ccccc12,53 to 55
7,O=C(CCl)c1cccn1Cc1ccccc1[N+](=O)[O-],112 to 114
8,CCC(=O)Oc1cc(OC)cc(OC)c1C(=O)C=Cc1ccco1,93.6
9,CCCCCCc1ccc(C2CN=C(NC(=O)OC)N2C)cc1 (stereo not drawn),115 to 116
10,CC1CCCCN1c1cc(F)cc(C(=O)Nc2ccc(OCCN3CCOCC3)c3ccccc23)c1 (stereo not drawn),75 to 78
11,O=C(OCc1ccccc1)N1CCSC1=S,72
12,CC1(C)CCCC(C)(C)N1c1nc(Cl)cc(Cl)n1,89 to 90
13,O=C1Nc2cccnc2C12COc1cc3c(cc12)OCCO3 (stereo not drawn),> 250
14,Cc1cc(-c2ccc(Cl)c(OC3SCC(O)C(O)C3O)c2)ccn1 (stereo not drawn),137
15,O=C(c1ccc(-n2ccc(C(F)(F)F)n2)cc1)N1Cc2cccn2Cc2ccccc21,166 to 167
16,NC(=O)c1cc2cc(F)ccc2nc1N,232 to 236
17,CCS(=O)c1cnc(Cl)c(Cl)c1 (stereo not drawn),78 to 79
18,COc1nc2cc(F)ccc2nc1Cl,93 to 95
19,COc1cc(C2=Nc3ccc(N4CCCC4)cc3C(=O)C2)ccc1O,310 to 312
20,COC(=O)c1nc(N=[N+]=[N-])ccc1OCc1ccccc1,88 to 89
21,CN1C(=O)C(NC(=O)OCc2ccccc2)N=C(c2ccccc2)c2ccccc21 (stereo not drawn),78 to 80
22,FC(F)C(F)(F)Sc1nc(-c2ccco2)c(-c2ccco2)[nH]1,166 to 167
23,CN(C)CC1COC2(CCN(c3nc4c(cc3F)C=C(C(=O)O)CN4c3ccc(F)cc3F)C2)O1 (stereo not drawn),154 to 155
24,NC(=O)C1(Nc2ccccc2)CCN([C@H]2CCc3ccccc32)CC1,194 to 195
25,CCOC(=O)c1c(CCc2ccc(OC)cc2)oc2ccc(Br)cc12,73 to 75
26,C/C(=C\c1ccc(OC(C)C)cc1Oc1ncc(C(F)(F)F)cc1Cl)C(=O)NS(=O)(=O)NCc1cnc(C)cn1,126 to 128

row,Compound,melting point [°C]
1,CCOC(=O)c1cc2ccc(C#N)cc2[nH]1,176
2,CC(=O)c1cc2c(Cl)cc(F)c(-n3c(=O)cc(C(F)(F)F)n(C)c3=O)c2o1,193 to 194
3,COc1ccc(NC(=O)C2CC2)cn1,130 to 131
4,COc1cccc(OCC(=O)c2cc(OCc3ccccc3)ccc2OC)c1,76 to 77
5,CCOC(OCC)C(O)(Cc1c(NC(=O)C(C)(C)C)cnc(Cl)c1C)c1ccccc1 (stereo not drawn),133
6,CCOc1ccc(-c2nc(-c3ccc(S)cc3C(=O)O)cs2)cc1OCC,283 to 285
7,NCCN1CCC(Nc2nc3ccccc3n2Cc2cccs2)CC1,137
8,CC(C)N1CCC(Nc2nc3cncnc3n2Cc2ccc(F)cc2)CC1,186
9,OCC1(CO)c2ccccc2C=Cc2ccccc21,162 to 163
10,O=C(Nc1ccc2ccc(-c3ccccc3)nc2n1)c1cccc(Br)c1,175
11,CNC1CCN(c2c(F)cc3c(=O)c(C(=O)O)cn(C4COC4)c3c2F)C1 (stereo not drawn),252 to 255
12,N=C(N)Nc1nc(CCCCNc2ncc(Cc3ccc(Cl)cc3)c(=O)[nH]2)cs1,200 to 205
13,Cc1ccc(NC(=O)c2cc(Cl)ccc2NCC2CCN(C3CCCCCC3)CC2)nc1,159 to 161
14,CS(=O)c1nc(O)nn1-c1ccccc1 (stereo not drawn),180 to 182
15,O=C1OC(O)(c2ccccc2)C2(Cl)CCCCC12 (stereo not drawn),89 to 92
16,CCOC(=O)C1=C(C)NC(CSCO)=C(C(=O)OCC)C1c1cccc([N+](=O)[O-])c1 (stereo not drawn),113 to 114
17,Cc1cc2cnnc(OCc3ccccc3)c2n1Cc1ccccc1,124
18,O=C1NC2C(CC(O)C(O)C2O)c2cc3c(c(O)c21)OCO3 (stereo not drawn),182
19,CC(=O)N(CC(C)C)C1NC(=O)N(c2ccc(C)cc2)C(=O)N1,159 to 160
20,N#CC1(N)CCc2cccc(Cl)c2C1 (stereo not drawn),67 to 69
21,Cc1ccccc1S(=O)(=O)NC(N)=O,179 to 180
22,CN(C)c1ccc(-c2c(N3CCCC3C(=O)OC(C)(C)C)c(=O)c2=O)cc1 (stereo not drawn),115
23,CCCN(CCC)C(=O)C(CCC(=O)OC)NC(=O)C(C(=O)OC)=C1SC=CS1 (stereo not drawn),115 to 117
24,COc1ccc([N+](=O)[O-])c(CS(=O)(=O)c2ccccc2)c1,167 to 169
25,O=C(O)c1cc(CO)ccc1O,108 to 110
26,OC1CC(c2ccccc2)C(c2ccccc2)(c2ccc(OCCN3CCOCC3)cc2)O1 (stereo not drawn),150 to 153

row,Compound,melting point [°C]
1,CCOC(=O)Cc1nc(-c2ccc(Cl)cc2)oc1-c1ccsc1,127 to 128
2,O=[N+]([O-])c1ccc(S(=O)(=O)Nc2cccc3c(Cl)c[nH]c23)cc1,200
3,CCN1C(=O)NC(Cc2c[nH]c3ccccc23)C1=O (stereo not drawn),167 to 170
4,O=c1[nH]c2c(O)cccc2c(=O)n1CCCN1CC=C(c2ccc(Cl)cc2)CC1,284 to 286
5,COc1cc2c(cc1OC)CN(CCCCc1ccc(NC(=O)c3cccc4c(=O)cc(-c5ccccc5)[nH]c34)cc1)CC2,204
6,Cc1ccc(-c2ccc3c(c2)C=C(C(=O)Nc2ccc(-c4cccnc4)cc2)CCO3)cc1,214 to 216
7,CCOC1OC(CO)C(COc2c(C(C)(C)C)cc(SC(C)(C)Sc3cc(C(C)(C)C)c(O)c(C(C)(C)C)c3)cc2C(C)(C)C)O1 (stereo not drawn),60 to 62
8,COc1cc2ncc(C#N)c(Nc3ccc(C(F)(F)F)cc3)c2cc1OC,116 to 118
9,CCOC(=O)CCCn1cc(C(=O)c2ccc(N)c(OCCCCl)c2)c2ccccc21,93 to 95
10,COC(=O)c1cc(C(C)(C)C)cc(C(C)(C)C)c1,52 to 52.5
11,CC(C)C1=NC(c2ccccc2)=NC(c2ccc(F)cc2)C1=CO (stereo not drawn),183 to 184
12,CCC(=O)c1cc(-c2ccc(OC)cc2)no1,135 to 136
13,Cc1cccc(-c2ccnc3c(C(=O)N=CN(C)C)cnn23)c1,165 to 166
14,CCOC(=O)c1cnc2c(C=O)cc(CN3CCOCC3)cc2c1O,202 to 204
15,N#Cc1c(Cl)c(Cl)n(CCl)c1-c1ccc(Cl)c(Cl)c1,153 to 156
16,Nc1cc(O)cc2cc(-c3ccc(O)cc3)oc12,251 to 254
17,CCOP(=O)(Cc1ccc(C2=NCCO2)cc1)OCC,65
18,CN1CCN(Cc2ccc(-c3ccc(-c4cn([C@H]5CN6CCC5CC6)nn4)s3)cc2)CC1,214
19,O=C1c2ccc(CCCCc3ccccc3)cc2CCN1OC1CCCCO1 (stereo not drawn),62 to 64
20,CN(C)c1nc2c(ccc3ccccc32)s1,136 to 138
21,Cc1nnc(-c2ccc3occ(-c4cccc(OC(F)(F)F)c4)c3c2)o1,110 to 111
22,O=C(Nc1ccccc1F)c1c(O)ccn2c1nc1ccccc12,237 to 238
23,OC(Cc1ccccn1)(c1ccccc1)c1ccccc1,147 to 151
24,O=C(c1csc2ccccc12)C1CCN(CCc2ccccc2)CC1,110 to 112
25,CCOC(=O)C1=C(C(F)(F)F)COc2ccc3ccccc3c21,246 to 249
